From PubChem BioAssay (NCI)
Several values for one entry are separate records, joined by “and”; a condition that tells them apart may be missing. Equal entries are not always repeated.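 Where inhibition never reached the appropriate level, the endpoint shown equals the highest concentration tested. Otherwise, values were interpolated linearly from a five-concentration, 48-hour dose response in 96-well plates. GI50 marks 50% less growth. The concentration for full growth arrest is given as TGI.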

Tests used:
Test in all cases: NCI tumour cell line growth inhibition, 48 h
[1] = tested on: PC-3 prostate
[2] = tested on: COLO 205 colon
[3] = tested on: SN12C renal
[4] = tested on: HS 578T breast
[5] = tested on: K-562 leukemia
[6] = tested on: NCI-H226 lung
[7] = tested on: RPMI-8226 leukemia
[8] = tested on: OVCAR-3 ovarian
[9] = tested on: IGROV1 ovarian
[10] = tested on: CAKI-1 renal

Structure (SMILES)	GI50 [1]	TGI [1]	GI50 [2]	TGI [2]	GI50 [3]	TGI [3]	GI50 [4]	TGI [4]	GI50 [5]	TGI [5]	GI50 [6]	TGI [6]	GI50 [7]	TGI [7]	GI50 [8]	TGI [8]	GI50 [9]	TGI [9]	GI50 [10]	TGI [10]
C#Cc1cccc(NC(=O)c2cccc(NC(=O)CCl)c2)c1	18900 nM	70.7 µM	22000 nM	> 82.5 µM	14.9 µM	49.1 µM	17.4 µM	76.2 µM	7740 nM	> 82.5 µM	19800 nM	59.4 µM	17300 nM	59.3 µM	14200 nM	29.4 µM	5790 nM	19.1 µM	31500 nM	> 82.5 µM
O=C(Nc1cccc(C(F)(F)F)c1)c1ccc(NC2=C(Cl)C(=O)N(Cc3ccccc3)C2=O)cc1	14000 nM	27 µM	21900 nM	49.8 µM	4.4 µM	20.1 µM	22.1 µM	> 100 µM	1460 nM	12.5 µM	16000 nM	35.8 µM	2170 nM	4.88 µM	2090 nM	4.63 µM	2010 nM	4.63 µM	1650 nM	3.24 µM
O=S(=O)(O)n1ccnc1 (tested in a mixture with another compound)	–	> 100 µM	–	> 100 µM	–	> 100 µM	–	> 100 µM	–	> 100 µM	–	> 100 µM	–	> 100 µM	–	> 100 µM	–	> 100 µM	–	> 100 µM
FC(F)(F)c1cc(NC(=S)N2c3ccccc3-n3cccc3C2c2cccnc2)cc(C(F)(F)F)c1 (centres undefined)	–	16.7 µM	9070 nM	21.6 µM	12.1 µM	35.9 µM	12.5 µM	40.6 µM	3580 nM	19.3 µM	22700 nM	54.7 µM	3840 nM	18.7 µM	3010 nM	9.47 µM	8760 nM	22.9 µM	5360 nM	21.7 µM
C#CCOC(=O)/C=C/C(=O)Oc1ccc2c(C)cc(=O)oc2c1	> 100000 nM	> 100 µM	> 100000 nM	> 100 µM	> 100 µM	> 100 µM	> 100 µM	> 100 µM	> 100000 nM	> 100 µM	> 100000 nM	> 100 µM	> 100000 nM	> 100 µM	> 100000 nM	> 100 µM	> 100000 nM	> 100 µM	> 100000 nM	> 100 µM
Fc1ccc(-c2ncn(CCCN3CCOCC3)c2-c2ccncc2)cc1	> 25000 nM	> 25 µM	> 25000 nM	> 25 µM	> 25 µM	> 25 µM	> 25 µM	> 25 µM	> 25000 nM	> 25 µM	> 25000 nM	> 25 µM	> 25000 nM	> 25 µM	> 25000 nM	> 25 µM	> 25000 nM	> 25 µM	> 25000 nM	> 25 µM
O=C(O)CN1C(=O)CN=C(c2ccccn2)c2cc(Cl)ccc21	–	> 100 µM	–	> 100 µM	–	> 100 µM	–	> 100 µM	–	> 100 µM	–	> 100 µM	–	> 100 µM	–	> 100 µM	–	> 100 µM	–	> 100 µM
COc1ccc(CNCCCN2C(=O)c3ccc4c5c(ccc(c35)C2=O)C(=O)N(CCCNCc2ccc(OC)c(OC)c2OC)C4=O)c(OC)c1OC	109 nM	0.293 µM	52.4 nM	0.12 µM	0.0821 µM	0.157 µM	0.568 µM	3.15 µM	168 nM	0.515 µM	337 nM	1.1 µM	145 nM	0.56 µM	88.8 nM	0.23 µM	79.5 nM	0.189 µM	671 nM	1.95 µM
COc1ccc(C2CC(c3ccc(OC)cc3O)=NN2c2ccc(S(N)(=O)=O)cc2)cc1 (centres undefined)	4290 nM	> 100 µM	5980 nM	20.1 µM	16.7 µM	> 100 µM	8.22 µM	98.9 µM	5710 nM	> 100 µM	11700 nM	> 100 µM	4670 nM	> 100 µM	12200 nM	> 100 µM	6340 nM	> 100 µM	6740 nM	91.9 µM
CCN(CC)CCn1c(=O)c2cc(OC)c(OC)cc2c2ccc3cc4c(cc3c21)OCO4	799 nM	99.7 µM	192 nM	16.4 µM	0.455 µM	20.2 µM	12.4 µM	45.4 µM	536 nM	–	446 nM	> 50.6 µM	436 nM	4.56 µM	7570 nM	25.5 µM	491 nM	21.4 µM	222 nM	15.1 µM
COc1ccccc1NC(=O)CC(=O)n1nc(C)c(N=Nc2ccccc2Cl)c1C	–	> 100 µM	–	> 100 µM	–	> 100 µM	–	> 100 µM	–	> 100 µM	–	> 100 µM	–	> 100 µM	–	> 100 µM	–	> 100 µM	–	> 100 µM
CN[C@@H](Cc1cccc2ccccc12)C(=O)N[C@@H](CC(C)C)B(O)O	39.1 nM	0.154 µM and 0.031 µM	42.7 nM	0.17 µM	0.0167 µM	0.0722 µM and 0.0185 µM	–	0.0577 µM	22.8 nM	0.0952 µM	–	0.00722 µM	5.47 nM	0.0439 µM	15.8 nM	0.037 µM and < 0.0147 µM	18.7 nM	0.0554 µM and 0.0681 µM	–	0.0272 µM and < 0.0131 µM
CC[C@H]1CCC/C=C/[C@@H]2C[C@H](O)C[C@H]2[C@H](O)/C=C/C(=O)O1	51.7 nM	> 100 µM	21.3 nM	0.0395 µM	0.053 µM	> 100 µM	–	> 100 µM	125 nM	> 100 µM	19.7 nM	0.0424 µM	38.7 nM	12.5 µM	28.1 nM	0.104 µM	152 nM	> 100 µM	44.4 nM	> 100 µM
CCOC(=O)c1c(-c2ccc(OC)c(O)c2)c(C#N)c(=S)n(C2OC(COC(C)=O)C(OC(C)=O)C(OC(C)=O)C2OC(C)=O)c1-c1ccccc1 (centres undefined)	25000 nM and > 100000 nM	66.5 µM and > 100 µM	27900 nM and > 100000 nM	> 100 µM	33.8 µM and > 100 µM	> 100 µM	38.8 µM and > 100 µM	> 100 µM	43100 nM and > 100000 nM	> 100 µM	–	> 100 µM	36500 nM and 6100 nM	81.5 µM and > 100 µM	20900 nM and > 100000 nM	45.2 µM and > 100 µM	23600 nM and > 100000 nM	47.7 µM and > 100 µM	34500 nM and > 100000 nM	> 100 µM
CCOC(=O)Nc1ccc2c(c1)C(=O)N(CC)c1ccccc1O2	121 nM	> 100 µM	81.9 nM	0.617 µM	0.449 µM	> 100 µM	0.117 µM	> 100 µM	48.4 nM	> 100 µM	796 nM	> 100 µM	126 nM	> 100 µM	78.8 nM	0.612 µM	265 nM	> 100 µM	179 nM	> 100 µM
CC(C)=Cc1cccc2[nH]c(O)c(N=Nc3ccc(S(N)(=O)=O)cc3)c12	6200 nM	> 25 µM	> 9930 nM	> 25 µM	> 25 µM	> 25 µM	0.506 µM	16.4 µM	3690 nM	> 25 µM	> 6160 nM	> 25 µM	8160 nM	> 25 µM	11500 nM	> 25 µM	> 25000 nM	> 25 µM	1690 nM	> 25 µM
COc1cc2c(/C=C3/C(=O)Nc4ccc(O)cc43)c(Cl)n(Cc3cc(OC)c(OC)c(OC)c3)c2cc1C	1560 nM	> 83.6 µM	2610 nM	> 100 µM	4.14 µM	> 44 µM	2.37 µM	> 30.5 µM	2170 nM	> 31.6 µM	2880 nM	> 27 µM	2120 nM	> 100 µM	1320 nM	> 20.8 µM	–	5.75 µM	2250 nM	15 µM
COc1ccc2nc3c(cc2c1)C(=O)CC(c1ccccc1)C3 (centres undefined)	901 nM	> 100 µM	732 nM	> 100 µM	0.732 µM	> 100 µM	0.882 µM	> 100 µM	359 nM	> 100 µM	2530 nM	> 100 µM	3650 nM	> 100 µM	1400 nM	10.4 µM	2320 nM	> 100 µM	552 nM	> 100 µM
O=C1OC(c2ccc(Cl)cc2)=N/C1=C\c1ccccc1	–	> 100 µM	–	> 100 µM	–	> 100 µM	–	> 100 µM	–	> 100 µM	–	> 100 µM	–	> 100 µM	–	> 100 µM	–	> 100 µM	–	> 100 µM
CC1(C)N=c2cc3c(cc2N1c1ccc(Cl)cc1)=Nc1ccccc1N3c1ccc(Cl)cc1	2450 nM	> 100 µM	4660 nM	21.8 µM	7.9 µM	> 100 µM	12.2 µM	> 100 µM	1680 nM	4.95 µM	4950 nM	> 100 µM	2050 nM	11.8 µM	4070 nM	31.7 µM	13400 nM	> 100 µM	18200 nM	> 100 µM
CN(/N=C/c1ccccc1O)c1ccc2ccccc2n1	–	34.3 µM	–	> 100 µM	–	> 100 µM	–	72.8 µM	–	> 100 µM	–	> 100 µM	–	> 100 µM	–	34.7 µM	–	42.5 µM	–	> 100 µM
S=C1SCN(Cc2ccccc2)CN1Cc1ccccc1	3360 nM	15.6 µM	3210 nM	11.6 µM	5.01 µM	18.5 µM	3.02 µM	25.6 µM	1150 nM	9 µM	> 32600 nM	> 50.8 µM	119 nM	0.415 µM	2490 nM	9.09 µM	4390 nM	12.2 µM	7190 nM	20.9 µM
CC(=O)Nc1ccc(OC(C)=O)cc1	< 10 nM	> 66.3 µM	< 10 nM	0.01 µM	< 0.01 µM	49.1 µM	< 0.0166 µM	61.5 µM	< 10 nM	> 57.2 µM	< 10 nM	–	< 10 nM	9.64 µM	< 10 nM	< 0.0134 µM	< 12.2 nM	> 48.5 µM	84 nM	28.8 µM
Cc1ccc2[nH]c(C(=O)NN3C(=O)C(C)SC34CCC(C)CC4)c(-c3ccccc3)c2c1 (centres undefined)	13800 nM	46 µM	17800 nM	41.1 µM	13 µM	28 µM	41.8 µM	> 100 µM	16200 nM	61.9 µM	17300 nM	35.5 µM	11500 nM	52.6 µM	11800 nM	27.3 µM	13600 nM	36.4 µM	15600 nM	38 µM
O=C(Nc1cn[nH]c1-c1nc2ccc(CN3CCOCC3)cc2[nH]1)NC1CC1	957 nM and 4290 nM	36.2 µM and > 10 µM	37.6 nM and 75.2 nM	1.75 µM and 3.81 µM	0.468 µM and 2.54 µM	12.1 µM and > 10 µM	0.118 µM and 0.125 µM	0.717 µM and 0.681 µM	543 nM and 1590 nM	> 100 µM	153 nM and 312 nM	–	7050 nM and > 10000 nM	28.3 µM and > 10 µM	306 nM and 1320 nM	6.3 µM and 6.7 µM	2750 nM and 2670 nM	19.8 µM and > 10 µM	–	15.2 µM and > 10 µM
Cc1cc(=O)oc2cc3oc(N(C)c4ccccc4)nc(=O)c3cc12	–	> 100 µM	–	> 100 µM	–	> 100 µM	–	> 100 µM	–	> 100 µM	–	> 100 µM	–	> 100 µM	–	> 100 µM	–	> 100 µM	–	> 100 µM
COc1cc2c(cc1O)c(=O)n(CCN(C)C)c1c3cc4c(cc3ncc21)OCO4	243 nM	2.51 µM	1520 nM	15.2 µM	< 0.01 µM	10.5 µM	0.366 µM	26.1 µM	19 nM	> 100 µM	18.4 nM	0.124 µM	24.2 nM	0.434 µM	38.8 nM	0.423 µM	41.7 nM	8.2 µM	< 10 nM	1.24 µM
